From patent US20240238417A1, “METHODS OF PRODUCING TUMOR VACCINES AND USES THEREOF” (priority 2021, published 2024)

Columns and labels:
A549 cells = experiment: XTT viability of A549 cells after direct gas exposure in 96-well plate; assay type: cell-based
Method: (§1) In vitro systems: One system involves a direct exposure of cancer cells to gNO in 96-well plate. Gaseous NO at 150 ppm-50,000 ppm was delivered at 0.3 LPM for 10 seconds—3 minutes. In another system, cancer cells were exposed to gNO in a box made of acrylic glass. Gaseous NO at 10,000-50,000 ppm was delivered at 0.9 LPM for 10 seconds—15 minutes.
(§2) The exposure of the cancer cells to gNO was done after removing the cell culture medium.
(§3) Immediately after gas exposure, cell culture medium was added, and the cells were incubated at a 37° C. and 5% CO2 incubator over-night. To test cell viability, XTT assay and Annexin V-Propidium Iodide assays were performed, according to known protocols.
(§4) A549 cells were prepared in RPMI medium and suspended in four 96-well plates. The wells were exposed to the gas by a tubing that was directed at each well for 10, 60 or 180 seconds. The diameter of the gas tubing used was about 25% of the diameter of each well. Three wells were used for each gas and exposure time. The plates were placed in a 5% CO2, 37° C. incubator for 15-18 hours and the viability of the cells was tested by XTT assay.

CT26 challenge tumor = experiment: Challenge assay in CT26 tumor-bearing mice; assay type: in vivo
Method: Challenge tumor inoculation: Up to 21 days after gas treatment was applied to the primary tumor, the appropriate cancer cell suspensions were prepared as described herein and inoculation of cells was repeated on the contralateral flank of the mice. Administration was performed as soon as possible following cell suspension preparation and after manual shaking prior to withdrawal of the cell suspension.
The percentage of challenge tumor take was monitored 2-3 times a week by taking a look at the inoculated site and touching this area to look for small tumors that are not yet visible. Naïve mice inoculated with tumor cells for the first time served as an internal control.
In another challenge assay, the tumors of CT26 tumor-bearing mice were treated with 25,000-200,000 ppm gNO delivered into the tumors using 23G hypodermic needles, as depicted in FIG. 17A.
CT26 tumor-bearing mice treated with 25,000 ppm for 30 minutes, were re-inoculated with CT26 tumor cells 12 days after treatment (n=1) and 14 days after treatment (n=1). The percentage of visible challenge tumor take was assessed 2-3 times a week for more than 50 days.
An additional group of CT26 tumor-bearing mice were treated with 50,000 ppm for 10 minutes, and were re-inoculated with CT26 tumor cells 7 days (n=1) or 9 days (n=1) after treatment. The percentage of challenge tumor take was assessed 2-3 times a week for 12 days.
An additional group of CT26 tumor-bearing mice were treated with 200,000 ppm for 2-35 seconds, were re-inoculated with CT26 tumor cells 14 days (n=2) post treatment. The percentage of visible challenge tumor take was assessed 2-3 times a week for more than 50 days.
Naïve mice, inoculated with CT26 for the first time, served as the control group.
The effect of high-pressure gas treatment on stimulation of anti-tumor immune response was tested in a challenge assay as depicted in FIG. 37A.
Balb/c mice were inoculated subcutaneously (s.c) with the mouse colon cancer cell line, CT26. […]

CT26 tumor = experiment: Combined gNO and surgery, CT26 tumor recurrence; assay type: in vivo, mice; conditions: then excision
Method: The following in vivo experimental procedures were carried out in accordance with the protocol approved by the Ethics Committee on the Use and Care of Animals. Institutional Animal Care and Use Committee (IACUC): IL-20-3-149.
CT26 tumor-bearing mice were treated with 20,000 ppm and 50,000 ppm gNO intra-tumorally for 5 minutes. Up to fourteen days post gNO treatment, all tumors were excised, and the recurrence rate was monitored for 89 days post-excision. Tumor recurrence was detected 17 days post treatment.

LLC1 cells = experiment: Annexin V-Propidium Iodide apoptosis-necrosis assay of LLC1 cells; assay type: cell-based; conditions: 20,000 ppm or 50,000 ppm gNO for 3 minutes, overnight incubation
Method: as §3
In an additional set of experiments, the plates were exposed to the gas (at 20,000 ppm or 50,000 ppm) by filling the chamber with gNO for 3 minutes. After exposure, the plates were placed in a 5% CO2, 37° C. incubator for an overnight incubation and the viability of the cells was tested via Annexin V—Propidium Iodide apoptosis-necrosis assay.

PC-3 cells = experiment: XTT viability of PC-3 cells after direct gas exposure in 96-well plate; assay type: cell-based
Method: as §1, §2, §3
as §4, with “PC-3” for “A549”

SMILES: [N]=O [gNO, nitric oxide]
- viability of A549 cells (A549 cells; 4000, 10,000, or 50,000 ppm gNO for 10 seconds): 50%-84%
- viability of A549 cells (A549 cells; 4000, 10,000, or 50,000 ppm gNO for 60 seconds): 65%-96%
- viability of A549 cells (A549 cells; 4000, 10,000, or 50,000 ppm gNO for 180 seconds): 45%-62%
- secondary CT26 tumor cell inoculation at end of follow-up (CT26 challenge tumor; 25,000 ppm 30 minutes, 50,000 ppm 10 minutes or 200,000 ppm 2-35 seconds, naive mice 100% tumor take): all NO-treated mice rejected a secondary CT26 tumor cell inoculation
- tumor-free mice, no primary and challenge tumors (CT26 challenge tumor; 25,000 ppm gNO, 0.25 LPM, two 15-minute cycles, outlet pressure 3.5-5.17 bars): 50%
- development of a secondary (challenge) CT26 tumor (CT26 challenge tumor; 25,000 ppm gNO, 0.25 LPM, two 15-minute cycles, outlet pressure 3.5-5.17 bars, re-inoculated days 12-14): have not developed a secondary tumor
- tumor recurrence (CT26 tumor; 20,000 ppm gNO intra-tumorally 5 minutes, 17 days post-surgery): about 18%
- tumor recurrence (CT26 tumor; 50,000 ppm gNO intra-tumorally 5 minutes, 17 days post surgery): 0%
- LLC1 cells at late apoptosis (LLC1 cells): 80%-90%
- viability of PC-3 cells (PC-3 cells; 4,000 ppm and 10,000 ppm gNO for 180 seconds): 43-48%
- viability at 4000 ppm (PC-3 cells; Homo sapiens, PC-3, 1 min, 4,000 ppm, 10,000 ppm and 50,000 ppm gNO for 1 minute): 44 to 55%
- viability at 4000 ppm (PC-3 cells; Homo sapiens, PC-3, 4,000 ppm, 10,000 ppm and 50,000 ppm gNO for 10 seconds): 56 to 72%
- viability at 50000 ppm (PC-3 cells; Homo sapiens, PC-3, 50,000 ppm gNO for 180 seconds): ~17%
